Data reported in ChEMBL document CHEMBL3885861, “Open TG-GATES”.

Species: Rattus norvegicus
Assay: Open TG-GATES - Regimen: Single
Format: toxicity, organism-based, Sprague-Dawley
Parameters: regimen Single, gender Male, age 6 weeks
Details: in vivo, po, 0 mg/kg, route gavage, dose level Control; for APTT / Bas / Eos / Fbg / Hb / Ht / Lym / MCHC / MCV / Mono / PT / Plat / RBC / Ret / WBC: tissue Blood; for KIDNEY_L / KIDNEY_R / KIDNEY_TOTAL: tissue Kidney; for LIVER: tissue Liver; for ALP / ALT / AST / BUN / CRE / DBIL / GLC / K / LDH / Na / PL / RALB / TBIL / TC / TG / TP / gamma-GTP: tissue Plasma

O=C1NC(=O)C(c2ccccc2)(c2ccccc2)N1 [PHENYTOIN]
TERMINAL_BW (3 h): 209.3 g
APTT (3 h): 16.8 s
Bas (3 h): 0.4%
Eos (3 h): 0.8%
Fbg (3 h): 267 mg/dL
Hb (3 h): 13.4 g/dL
Ht (3 h): 40.2%
Lym (3 h): 78.6%
MCHC (3 h): 33.3%
MCV (3 h): 62.2 fL
Mono (3 h): 3%
PT (3 h): 13.9 s
Plat (3 h): 116.9 x10_4/uL
RBC (3 h): 646.8 x10_4/ul
Ret (3 h): 8.3%
WBC (3 h): 81.2 x10_2/uL
KIDNEY_L (3 h): 0.9 g
KIDNEY_R (3 h): 0.9 g
KIDNEY_TOTAL (3 h): 1.9 g
LIVER (3 h): 9.6 g
ALP (3 h): 1709.4 IU/L
ALT (3 h): 37 IU/L
AST (3 h): 75.6 IU/L
BUN (3 h): 9.8 mg/dL
CRE (3 h): 0.2 mg/dL
DBIL (3 h): 0.018 mg/dL
GLC (3 h): 177.4 mg/dL
K (3 h): 4.1 meq/L
LDH (3 h): 127.8 IU/L
Na (3 h): 141.6 meq/L
PL (3 h): 145.2 mg/dL
RALB (3 h): 2.5 g/dL
TBIL (3 h): 0.056 mg/dL
TC (3 h): 75.8 mg/dL
TG (3 h): 61.4 mg/dL
TP (3 h): 5.4 g/dL
gamma-GTP (3 h): 1.2 IU/L
TERMINAL_BW (6 h): 207.9 g
APTT (6 h): 16.8 s
Bas (6 h): 0.6%
Eos (6 h): 0.8%
Fbg (6 h): 297.4 mg/dL
Hb (6 h): 13.3 g/dL
Ht (6 h): 39.4%
Lym (6 h): 79.4%
MCHC (6 h): 33.6%
MCV (6 h): 61.5 fL
Mono (6 h): 3%
PT (6 h): 14.1 s
Plat (6 h): 121.6 x10_4/uL
RBC (6 h): 641.4 x10_4/ul
Ret (6 h): 7.5%
WBC (6 h): 97.9 x10_2/uL
KIDNEY_L (6 h): 0.9 g
KIDNEY_R (6 h): 0.9 g
KIDNEY_TOTAL (6 h): 1.8 g
LIVER (6 h): 8.5 g
ALP (6 h): 1520.6 IU/L
ALT (6 h): 34.4 IU/L
AST (6 h): 67.6 IU/L
BUN (6 h): 8.6 mg/dL
CRE (6 h): 0.2 mg/dL
DBIL (6 h): 0.018 mg/dL
GLC (6 h): 184.2 mg/dL
K (6 h): 4.3 meq/L
LDH (6 h): 96.2 IU/L
Na (6 h): 142.2 meq/L
PL (6 h): 139.6 mg/dL
RALB (6 h): 2.5 g/dL
TBIL (6 h): 0.05 mg/dL
TC (6 h): 77.8 mg/dL
TG (6 h): 44.2 mg/dL
TP (6 h): 5.4 g/dL
gamma-GTP (6 h): 1.4 IU/L
TERMINAL_BW (9 h): 205.9 g
APTT (9 h): 15.5 s
Bas (9 h): 0.6%
Eos (9 h): 0.8%
Fbg (9 h): 295.6 mg/dL
Hb (9 h): 13.5 g/dL
Ht (9 h): 40.5%
Lym (9 h): 76.2%
MCHC (9 h): 33.4%
MCV (9 h): 61.1 fL
Mono (9 h): 2.6%
PT (9 h): 13.8 s
Plat (9 h): 126 x10_4/uL
RBC (9 h): 663.4 x10_4/ul
Ret (9 h): 7.6%
WBC (9 h): 79.7 x10_2/uL
KIDNEY_L (9 h): 0.9 g
KIDNEY_R (9 h): 0.9 g
KIDNEY_TOTAL (9 h): 1.8 g
LIVER (9 h): 8.7 g
ALP (9 h): 1437.2 IU/L
ALT (9 h): 29.8 IU/L
AST (9 h): 68.8 IU/L
BUN (9 h): 9.8 mg/dL
CRE (9 h): 0.2 mg/dL
DBIL (9 h): 0.014 mg/dL
GLC (9 h): 177.4 mg/dL
K (9 h): 4.2 meq/L
LDH (9 h): 93.4 IU/L
Na (9 h): 142.4 meq/L
PL (9 h): 131.6 mg/dL
RALB (9 h): 2.5 g/dL
TBIL (9 h): 0.052 mg/dL
TC (9 h): 72.4 mg/dL
TG (9 h): 40 mg/dL
TP (9 h): 5.5 g/dL
gamma-GTP (9 h): 1.6 IU/L
TERMINAL_BW (24 h): 224.3 g
APTT (24 h): 17.7 s
Bas (24 h): 0.4%
Eos (24 h): 1%
Fbg (24 h): 273.4 mg/dL
Hb (24 h): 13.2 g/dL
Ht (24 h): 39.1%
Lym (24 h): 79.8%
MCHC (24 h): 33.7%
MCV (24 h): 62.6 fL
Mono (24 h): 2.2%
PT (24 h): 14.4 s
Plat (24 h): 121.9 x10_4/uL
RBC (24 h): 625.6 x10_4/ul
Ret (24 h): 7.8%
WBC (24 h): 108.2 x10_2/uL
KIDNEY_L (24 h): 1 g
KIDNEY_R (24 h): 1 g
KIDNEY_TOTAL (24 h): 2.1 g
LIVER (24 h): 10.6 g
ALP (24 h): 1864.2 IU/L
ALT (24 h): 42.4 IU/L
AST (24 h): 75.2 IU/L
BUN (24 h): 14.8 mg/dL
CRE (24 h): 0.2 mg/dL
DBIL (24 h): 0.024 mg/dL
GLC (24 h): 187.6 mg/dL
K (24 h): 4 meq/L
LDH (24 h): 95.6 IU/L
Na (24 h): 142.6 meq/L
PL (24 h): 152 mg/dL
RALB (24 h): 2.6 g/dL
TBIL (24 h): 0.042 mg/dL
TC (24 h): 74.8 mg/dL
TG (24 h): 100.2 mg/dL
